Source: PubChem BioAssay (NCI)
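In this assay, cells in 96-well plates receive the compound at five concentrations for 48 hours. Endpoints are linearly interpolated between the surrounding concentrations. The concentration for full growth arrest is given as TGI.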

Columns and labels:
Test in all cases: NCI tumour cell line growth inhibition, 48 h
[1] = test system: A498 renal
[2] = test system: A549 NSCLC
[3] = test system: ACHN renal
[4] = test system: BT-549 breast
[5] = test system: CAKI-1 renal
[6] = test system: COLO 205 colon
[7] = test system: DU-145 prostate
[8] = test system: EKVX NSCLC
[9] = test system: HCT-116 colon
[10] = test system: HCT-15 colon
[11] = test system: HOP-92 NSCLC
[12] = test system: HS 578T breast
[13] = test system: HT29 colon
[14] = test system: IGROV1 ovarian
[15] = test system: M14 melanoma
[16] = test system: MDA-MB-435
[17] = test system: MDA-N
[18] = test system: NCI-H23 lung
[19] = test system: NCI-H460 lung
[20] = test system: NCI-H522 lung
[21] = test system: OVCAR-3 ovarian
[22] = test system: OVCAR-4 ovarian
[23] = test system: OVCAR-5 ovarian
[24] = test system: OVCAR-8 ovarian
[25] = test system: PC-3 prostate
[26] = test system: RXF 393 renal
[27] = test system: SF-268 CNS
[28] = test system: SF-295 CNS
[29] = test system: SF-539 CNS
[30] = test system: SK-MEL-28 melanoma
[31] = test system: SK-MEL-5 melanoma
[32] = test system: SK-OV-3 ovarian
[33] = test system: SN12C renal
[34] = test system: SNB-19 CNS
[35] = test system: SNB-75 CNS
[36] = test system: SW-620 colon
[37] = test system: TK-10 renal
[38] = test system: U251 CNS
[39] = test system: UACC-257 melanoma
[40] = test system: UACC-62 melanoma
[41] = test system: UO-31 renal
[42] = test system: 786-0 renal
[43] = test system: CCRF-CEM leukemia
[44] = test system: HL-60(TB) leukemia
[45] = test system: HOP-62 NSCLC
[46] = test system: K-562 leukemia
[47] = test system: KM12 colon
[48] = test system: LOX IMVI melanoma
[49] = test system: MALME-3M melanoma
[50] = test system: MCF7 breast
[51] = test system: MDA-MB-231 breast
[52] = test system: MOLT-4 leukemia
[53] = test system: NCI-H226 lung
[54] = test system: NCI/ADR-RES ovarian
[55] = test system: RPMI-8226 leukemia
[56] = test system: SR leukemia
[57] = test system: T-47D breast

Measured: TGI

CCn1nc(C)c2c1C(=O)NC(C)C(=O)N2 (stereo not drawn)
28.3 µM: [10]
not listed: [42] | [43] | [44] | [45] | [46] | [47] | [48] | [49] | [50] | [51] | [52] | [53] | [54] | [55] | [56] | [57]
> 100 µM: all other assays above

O=c1[nH]c(=O)n(C2CC(O)C(CO)O2)cc1NN=NCCc1ccccc1 (stereo not drawn)
not listed: [1] | [4] | [11] | [29] | [36]
> 100 µM: all other assays above
